Measured values as given in patent US20080113347A1, “Method for the in Vitro Diagnosis and Prognosis of Demyelinating Diseases, and for the Development of Drugs Against Demyelinating Diseases” (priority 2003, published 2008).

Test system: dusp6 gene expression
Assay: Differential analysis of dusp6 gene expression in oligodendrocyte cultures with Rat Genome U34 DNA arrays
Type: cell-based
Parameters: key to Change: Increases (I); Decreases (D); undergoes No Change (NC); Marginally Increases (MI); Marginally Decreases (MD); key to Detection: Present (P); Absent (A); Marginal (M)
Settings: for SLR (vs control): Signal Log Ratio (log2); for Signal (dusp6, probe set U42627_at): arrays scaled to total intensity 100; for Change: vs control
Source text: Microarrays. The microarrays GeneChip Test 3 (Affymetrix, Santa Clara) were used which allow testing the quality of the RNA prior to the expression analysis with GeneChip Rat Genome U34 set (Affymetrix, Santa Clara), representing 3322 complete gene sequences. The dusp6 gene is represented in the microarray by probe set U42627_at of Affymetrix, which are sense oligonucleotides of 25 nucleotides in length designed on the basis of GeneBank U42627 sequence (Table 1).
Samples. The samples studied corresponded to primary oligodendrocyte cultures obtained from the optic nerve of 12-day old rats. To prevent inter-individual variations, each culture corresponded to a 10-animal cell pool. Treatments were made in duplicate with 10 μM AMPA (α-amino-3-hydroxy-5-methyl-4-isoxazolepropionic acid) or 3 μM kainate. The duration of treatments was 2, 10 and 15 minutes, the cells being collected immediately after treatment in the first two cases and 1 hour after the 15-minute treatment. Treatment for 10 and 15 minutes with AMPA and with kainate causes apoptosis, whereas 2-minute treatment was considered sublethal due to scarce treatment duration. After treatments, the cells were collected in TRIzol® Reagent (Life Technologies) and were stored at −80° C. until total RNA extraction.
The analysis was carried out with total RNA from oligodendrocyte cultures. Each sample corresponded to the mixture of total RNAs from two cultures and were called the following: control: untreated cultured oligodendrocytes ampa 2: oligodendrocytes treated for 2 minutes with 10 μM AMPA and collected after treatment ampa 10: oligodendrocytes treated for 10 minutes with 10 μM AMPA collected after treatment ampa 15: oligodendrocytes treated for 15 minutes with 10 μM AMPA and collected 60 minutes later Kainate 2: oligodendrocytes treated for 2 minutes with 3 μM kainate and collected after treatment Kainate 10: oligodendrocytes treated for 10 minutes with 3 μM kainate and collected after treatment Kainate 15: oligodendrocytes treated for 15 minutes with 3 μM kainate and collected 60 minutes later The total RNA of each one of the cultures was obtained by homogenizing the cells in TRIzol® Reagent (Life Technologies) following the supplier's recommendations. The resulting total RNA was cleaned with the RNeasy Mini kit (QIAGEN) (Chomczynski P. et al., Anal. Biochem., 1987, 162: 156; Chomczynski P., Biotechniques, 1993, 15: 532). 2 μg from each total RNA preparation were used as starting material for the synthesis of biotinylated cRNA with the MessageAmp™ aRNA kit (Ambion).
15 μg of each biotinylated cRNA were fragmented at 94° C. for 35 minutes in a buffer solution containing 40 mM Tris-Acetate (pH 8.1), 100 mM KOAc and 30 mM MgOAc. The fragmented cRNA was mixed with hybridization buffer (10 mM MES, 1M NaCl, 20 mM EDTA, 0.01% Tween 20) and was heated at 99° C. for 5 minutes and subsequently at 45° C. for 5 minutes, to then be loaded into the Affymetrix array. The first array in which hybridization was carried out was Affymetrix Test 3. This array allows testing the quality of the RNA prior to expression analysis in the Affymetrix® GeneChip® Rat Genome U34 set (RG-U34).
For hybridization, the arrays were incubated in a rotary oven at 45° C. for 16 hours and with a constant rotation of 60 rpm.
Washing and staining of each array was carried out in the Affymetrix® Fluidics Station. A washing and staining program was used which included:
The arrays were scanned at 560 nm using a confocal microscope using laser emission (Agilent GeneArray Scanner). Analysis of the intensity readings was carried out with Microarray Suite 5.0 software. To compare the arrays, the latter were scaled to a total intensity of 100.
Differential analysis of the dusp6 gene expression in the oligodendrocytes stimulated with regard to the control was carried out from the array comparison data obtained using the Affymetrix software. […]

[1] = treated 2 minutes (10 μM AMPA or 3 μM kainate), collected after treatment
[2] = treated 10 minutes (10 μM AMPA or 3 μM kainate), collected after treatment
[3] = treated 15 minutes (10 μM AMPA or 3 μM kainate), collected 60 minutes later

Question: With `Cc1onc(O)c1CC(N)C(=O)O` (stereo not drawn) [AMPA, α-amino-3-hydroxy-5-methyl-4-isoxazolepropionic acid] as the compound, how does the “SLR (vs control)” value [1] read?
Answer: 0.8

Question: What about the “SLR (vs control)” value [2] of the same compound?
Answer: 1.2

Question: And the “SLR (vs control)” value [3]?
Answer: 2.1

Question: What about the “Ratio (=2^SLR)” value (fold change vs untreated control, treated 2 minutes (10 μM AMPA or 3 μM kainate), collected after treatment) of the same compound?
Answer: 1.7 fold

Question: And the Detection [1]?
Answer: P

Question: What about the “Signal (dusp6, probe set U42627_at)” value [1] of the same compound?
Answer: 75.3

Question: What about the Detection [2] of the same compound?
Answer: P

Question: What about the “Signal (dusp6, probe set U42627_at)” value [2] of the same compound?
Answer: 101.7

Question: And the Detection [3]?
Answer: P

Question: And the “Signal (dusp6, probe set U42627_at)” value [3]?
Answer: 149.7

Question: And the Change [1]?
Answer: I

Question: What about the Change [2] of the same compound?
Answer: I

Question: What about the Change [3] of the same compound?
Answer: I
